Laboratory results as given in ChEMBL document CHEMBL3885881, “DrugMatrix”.

Organism: Rattus norvegicus
Assay: DrugMatrix - Regimen: Daily Repeat
Assay type: toxicity, organism-based, Sprague-Dawley
Design: regimen Daily Repeat, gender Male, age 6-8 weeks
Settings: in vivo, po, route oral GAVAGE, vehicle .5 % CMC; for ABSOLUTE BASOPHIL / ABSOLUTE EOSINOPHIL / ABSOLUTE LYMPHOCYTE / ABSOLUTE MONOCYTE / ABSOLUTE SEGMENTED NEUTROPHIL / BASOPHIL / EOSINOPHIL / ERYTHROCYTE COUNT / HEMATOCRIT / HEMOGLOBIN / LEUKOCYTE COUNT / LYMPHOCYTE / MEAN CORPUSCULAR HEMOGLOBIN / MEAN CORPUSCULAR HEMOGLOBIN CONCENTRATION / MEAN CORPUSCULAR VOLUME / MONOCYTE / NEUTROPHIL / NUCLEATED RED BLOOD CELLS / PLATELET COUNT: tissue Blood; for ALANINE AMINOTRANSFERASE / ALBUMIN / ALKALINE PHOSPHATASE / ASPARTATE AMINOTRANSFERASE / BLOOD UREA NITROGEN / CARBON DIOXIDE / CHLORIDE / CHOLESTEROL / CREATINE PHOSPHOKINASE / CREATININE / GLUCOSE / LACTATE DEHYDROGENASE / LIPASE / PHOSPHORUS / POTASSIUM / SODIUM / TOTAL BILIRUBIN / TOTAL PROTEIN / URIC ACID: tissue Plasma
[1] = 0 mg/kg, 72 h, dose level Control, time 3 day
[2] = 0 mg/kg, 120 h, dose level Control, time 5 day
[3] = 100 mg/kg, 72 h, dose level Low, time 3 day

Cl.NC[C@H]1CC[C@H](C(=O)Oc2ccc(CCC(=O)O)cc2)CC1 [CETRAXATE HYDROCHLORIDE]
ABSOLUTE BASOPHIL [1]: 0 CELLS/uL | ABSOLUTE EOSINOPHIL [1]: 284.5 CELLS/uL | ABSOLUTE LYMPHOCYTE [1]: 11670.5 CELLS/uL | ABSOLUTE MONOCYTE [1]: 420.83 CELLS/uL | ABSOLUTE SEGMENTED NEUTROPHIL [1]: 1024.17 CELLS/uL | BASOPHIL [1]: 0% | EOSINOPHIL [1]: 1.67% | ERYTHROCYTE COUNT [1]: 5.38 x10E6/uL | HEMATOCRIT [1]: 34.05% | HEMOGLOBIN [1]: 12.75 G/DL | LEUKOCYTE COUNT [1]: 13.4 x10E3/uL | LYMPHOCYTE [1]: 88.33% | MEAN CORPUSCULAR HEMOGLOBIN [1]: 23.73 pg | MEAN CORPUSCULAR HEMOGLOBIN CONCENTRATION [1]: 37.43 G/DL | MEAN CORPUSCULAR VOLUME [1]: 63.4 fL | MONOCYTE [1]: 2.83% | NEUTROPHIL [1]: 7.17% | NUCLEATED RED BLOOD CELLS [1]: 0 /100WBC | PLATELET COUNT [1]: 1184.67 x10E3/uL | ALANINE AMINOTRANSFERASE [1]: 45.33 u/L | ALBUMIN [1]: 4.3 G/DL | ALKALINE PHOSPHATASE [1]: 388.83 u/L | ASPARTATE AMINOTRANSFERASE [1]: 84.83 u/L | BLOOD UREA NITROGEN [1]: 15.5 mg/dL | CARBON DIOXIDE [1]: 27 mmol/L | CHLORIDE [1]: 101.8 MEQ/L | CHOLESTEROL [1]: 76.67 mg/dL | CREATINE PHOSPHOKINASE [1]: 301 u/L | CREATININE [1]: 0.21 mg/dL | GLUCOSE [1]: 168.83 mg/dL | LACTATE DEHYDROGENASE [1]: 294.83 u/L | LIPASE [1]: 9.8 u/L | PHOSPHORUS [1]: 13.25 mg/dL | POTASSIUM [1]: 6.41 MEQ/L | SODIUM [1]: 143.72 MEQ/L | TOTAL BILIRUBIN [1]: 0.22 mg/dL | TOTAL PROTEIN [1]: 5.98 G/DL | URIC ACID [1]: 1.5 mg/dL | ABSOLUTE BASOPHIL [2]: 0 CELLS/uL | ABSOLUTE EOSINOPHIL [2]: 190.67 CELLS/uL | ABSOLUTE LYMPHOCYTE [2]: 12549.5 CELLS/uL | ABSOLUTE MONOCYTE [2]: 276 CELLS/uL | ABSOLUTE SEGMENTED NEUTROPHIL [2]: 1067.17 CELLS/uL | BASOPHIL [2]: 0% | EOSINOPHIL [2]: 1.33% | ERYTHROCYTE COUNT [2]: 5.66 x10E6/uL | HEMATOCRIT [2]: 35.92% | HEMOGLOBIN [2]: 13.65 G/DL | LEUKOCYTE COUNT [2]: 14.08 x10E3/uL | LYMPHOCYTE [2]: 89% | MEAN CORPUSCULAR HEMOGLOBIN [2]: 24.12 pg | MEAN CORPUSCULAR HEMOGLOBIN CONCENTRATION [2]: 38.03 G/DL | MEAN CORPUSCULAR VOLUME [2]: 63.47 fL | MONOCYTE [2]: 2% | NEUTROPHIL [2]: 7.67% | NUCLEATED RED BLOOD CELLS [2]: 0.17 /100WBC | PLATELET COUNT [2]: 1251.67 x10E3/uL | ALANINE AMINOTRANSFERASE [2]: 43.33 u/L | ALBUMIN [2]: 4.22 G/DL | ALKALINE PHOSPHATASE [2]: 365.67 u/L | ASPARTATE AMINOTRANSFERASE [2]: 83.67 u/L | BLOOD UREA NITROGEN [2]: 18.17 mg/dL | CARBON DIOXIDE [2]: 28.67 mmol/L | CHLORIDE [2]: 103.5 MEQ/L | CHOLESTEROL [2]: 71.5 mg/dL | CREATINE PHOSPHOKINASE [2]: 284.5 u/L | CREATININE [2]: 0.21 mg/dL | GLUCOSE [2]: 161.67 mg/dL | LACTATE DEHYDROGENASE [2]: 259.67 u/L | LIPASE [2]: 9.5 u/L | PHOSPHORUS [2]: 12.45 mg/dL | POTASSIUM [2]: 6.49 MEQ/L | SODIUM [2]: 144.25 MEQ/L | TOTAL BILIRUBIN [2]: 0.2 mg/dL | TOTAL PROTEIN [2]: 6.1 G/DL | URIC ACID [2]: 1.73 mg/dL | ABSOLUTE BASOPHIL [3]: 0 CELLS/uL | ABSOLUTE EOSINOPHIL [3]: 0 CELLS/uL | ABSOLUTE LYMPHOCYTE [3]: 4748 CELLS/uL | ABSOLUTE MONOCYTE [3]: 119.67 CELLS/uL | ABSOLUTE SEGMENTED NEUTROPHIL [3]: 265.67 CELLS/uL | BASOPHIL [3]: 0% | EOSINOPHIL [3]: 0% | ERYTHROCYTE COUNT [3]: 5.52 x10E6/uL | HEMATOCRIT [3]: 36.1% | HEMOGLOBIN [3]: 13.33 G/DL | LEUKOCYTE COUNT [3]: 5.13 x10E3/uL | LYMPHOCYTE [3]: 92.67% | MEAN CORPUSCULAR HEMOGLOBIN [3]: 24.2 pg | MEAN CORPUSCULAR HEMOGLOBIN CONCENTRATION [3]: 36.97 G/DL | MEAN CORPUSCULAR VOLUME [3]: 65.43 fL | MONOCYTE [3]: 2.33% | NEUTROPHIL [3]: 5% | NUCLEATED RED BLOOD CELLS [3]: 0 /100WBC | PLATELET COUNT [3]: 1331 x10E3/uL | ALANINE AMINOTRANSFERASE [3]: 33.33 u/L | ALBUMIN [3]: 4.63 G/DL | ALKALINE PHOSPHATASE [3]: 363 u/L | ASPARTATE AMINOTRANSFERASE [3]: 79 u/L | BLOOD UREA NITROGEN [3]: 15 mg/dL | CARBON DIOXIDE [3]: 25 mmol/L | CHLORIDE [3]: 104 MEQ/L | CHOLESTEROL [3]: 87.33 mg/dL | CREATINE PHOSPHOKINASE [3]: 255.33 u/L | CREATININE [3]: 0.17 mg/dL | GLUCOSE [3]: 163.33 mg/dL | LACTATE DEHYDROGENASE [3]: 159.67 u/L | LIPASE [3]: 10 u/L | PHOSPHORUS [3]: 12.2 mg/dL | POTASSIUM [3]: 6 MEQ/L | SODIUM [3]: 147 MEQ/L | TOTAL BILIRUBIN [3]: 0.13 mg/dL | TOTAL PROTEIN [3]: 6.57 G/DL | URIC ACID [3]: 1.6 mg/dL
